For data set [1], the target named is T1, Recombinant human protein tyrosine phosphatase 1B (Homo sapiens, UniProt P18031).
T1 construct: purchased UBI
T1 sequence (P18031 1-435): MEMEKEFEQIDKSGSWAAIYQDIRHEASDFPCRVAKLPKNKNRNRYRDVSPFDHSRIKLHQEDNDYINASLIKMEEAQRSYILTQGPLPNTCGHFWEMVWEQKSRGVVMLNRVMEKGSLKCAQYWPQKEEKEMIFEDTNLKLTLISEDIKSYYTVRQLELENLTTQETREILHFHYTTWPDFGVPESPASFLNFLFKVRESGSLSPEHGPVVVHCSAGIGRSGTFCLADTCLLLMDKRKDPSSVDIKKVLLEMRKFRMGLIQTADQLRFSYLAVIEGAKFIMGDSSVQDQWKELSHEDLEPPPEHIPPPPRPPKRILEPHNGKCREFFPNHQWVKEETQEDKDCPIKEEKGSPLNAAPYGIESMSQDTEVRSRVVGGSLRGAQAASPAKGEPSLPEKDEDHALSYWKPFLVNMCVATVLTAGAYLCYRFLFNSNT
The experiment in a line: Protein tyrosine phosphatase 1B inhibitory activity (malachite green, phosphorylated insulin receptor peptide substrate). Format: biochemical. The conditions noted are these: recombinant human PTP1B, 60 min room temperature, absorbance 650 nm. The procedure: Preparation of Assay Buffer:
A 50 mM Tris-HCl buffer (pH 7.5), 50 mM NaCl and 3 mM dithiothreitol (DTT) were prepared.
[…] 0.1, 0.3, 1, 3 and 10 μM of the test compound were prepared and diluted with the above-mentioned assay buffer to the final dimethyl sulfoxide (DMSO) concentration of not more than 1%. As the control, the assay buffer was used.
Preparation of Substrate:
Recombinant human protein tyrosine phosphatase 1B (manufactured by UBI) was diluted with the above-mentioned assay buffer (1.2 ng/25 μl).
The sample (10 μl) prepared as mentioned above and a substrate (25 μl) were successively added to a 96 well plate, and the enzyme (25 μl) prepared as mentioned above was added and mixed. The mixture was incubated at room temperature for 60 min and a malachite green (120 μl, Biomol), which is a color reagent, was added. The mixture was further incubated at room temperature for 20 min to allow for color development. An absorbance at 650 nm was measured on a plate reader based on which the protein tyrosine phosphatase 1B inhibitory activity of the test compound was evaluated.

Another data set has as its system male ob/ob mice. Briefly: Hypoglycemic activity in ob/ob mice. The conditions noted are these: fasting, relative to control group. It is filed as in vivo. As for the experimental part: A 0.5% methyl cellulose suspension of the test compound was orally administered to 6- to 9-week-old male ob/ob mice grouped according to the glucose level. Only a 0.5% methyl cellulose solution was administered to a control group.
Blood was drawn under fasting condition, which condition was started simultaneously with the administration by means of removing the feed. The blood was drawn under anesthesia from the orbital vein 3 hours after the administration. The blood thus taken was centrifuged and the glucose level was measured from the obtained plasma by the hexokinase method (glucose measurement kit). For evaluation, the percentage (%) of decrease in the glucose level of the test compound-administered group relative to the control group is shown.

As to `CN(Cc1ccc([C@H]2CC[C@H](C)CC2)cc1)c1ccc(-c2csc(COC(=O)N(CC(=O)O)Cc3ccccc3)n2)cc1` [Example 3-108], the IC50 (as a rule, the concentration needed to halve the response being measured) in data set [1] came to 0.16 µM. In the data set with male ob/ob mice (dose 1 mg/kg oral), the “blood glucose decreasing rate (%) 3 hours later” value was determined as 29%.
As for `CCCC(CCC)c1ccc(CN(C)c2ccc(-c3csc(CN(CC(=O)O)Cc4ccccc4)n3)cc2)cc1` [Example 3-36], the IC50 in data set [1] came out at 0.1 µM. Also, the “blood glucose decreasing rate (%) 3 hours later” value in the data set with male ob/ob mice (dose 3 mg/kg oral) was found to be 52%.
Turning to `C[C@H]1CC[C@H](c2ccc(COc3ccc(-c4ccc(CN5CCN(c6ccc(C(=O)O)cc6)CC5)s4)cc3)cc2)CC1` [Example 4-74], the melting point (in general, the temperature of the solid-liquid transition) lay within 242.4 to 265.9 °C. In data set [1], the IC50 amounted to 0.11 µM.
Taken in the same sequence, the figures for `CCCC(CCC)c1ccc(OCc2ccc(-c3ccc(CN(CC(=O)O)Cc4nc5ccccc5n4CC(=O)N(CC)CC)s3)cc2)cc1` [Example 4-101] were 194.8 to 197 °C and 0.1 µM.
Taken in the same sequence, the figures for `CCCC(CCC)c1ccc(OCc2ccc(-c3ccc(CN(CC(=O)O)Cc4cc5ccccc5s4)s3)cc2)cc1` [Example 4-97] were 202.3 to 204.4 °C and 0.11 µM.
Taken in the same sequence, the figures for `CCCC(CCC)c1ccc(OCc2ccc(-c3csc(CN(CC(=O)O)Cc4nc5ccccc5s4)c3)cc2)cc1` [Example 4-88] were 150.9 to 152.8 °C and under 0.1 µM.
On to `CN(Cc1ccc([C@H]2CC[C@H](C)CC2)cc1)c1ccc(-c2csc(CN3CCC(C(=O)O)(c4ccccc4)CC3)n2)cc1` [Example 3-69], for which the melting point was in the range of 229 to 231 °C. Further, the IC50 in data set [1] was determined as 0.16 µM.
The compound `CCCC(CCC)c1ccc(OCc2ccc(-c3ccc(CN(CC(=O)O)Cc4c[nH]nc4-c4ccccc4)s3)cc2)cc1` [Example 4-95] showed a melting point of 145.9 to 149.3 °C. Moreover, the half-maximal inhibitory concentration (IC50) in data set [1] was determined as 0.28 µM.
The corresponding values for `CCCC(CCC)c1ccc(COc2ccc(-c3csc(CN4CCN(c5cccc(C(=O)O)c5)CC4)n3)cc2)cc1` [Example 1-156] are 153 to 154 °C and 0.19 µM.
The corresponding values for `Cc1ccc(OCc2ccc(C3CCCCC3)cc2)c(-c2csc(CN(C)[C@@H](Cc3ccccc3)C(=O)O)c2)c1` [Example 4-102] are 117 to 123.1 °C and 0.37 µM.
Taken in the same sequence, the figures for `CCCC(CCC)c1ccc(OCc2ccc(-c3csc(CN(CC(=O)O)C(=O)COc4ccc(C(C)C)cc4)c3)cc2)cc1` [Example 4-69] were 146 to 152 °C and 0.15 µM.
`CCCC(CCC)c1ccc(OCc2ccc(-c3ccc(CN(CC(=O)OCC)CC(=O)c4ccc(N5CCCC5)cc4)s3)cc2)cc1.Cl` [Example 4-82] had a melting point of 75.3 to 79.3 °C. In data set [1], the half-maximal inhibitory concentration (IC50) is 0.48 µM.
The corresponding values for `CCC(CC)c1ccc(COc2ccc(-c3csc(CN(CC(=O)O)Cc4ccc(F)cc4)n3)cc2)cc1` [Example 3-14] are 153 to 155 °C and 0.38 µM.
Take `CCCC(CCC)c1ccc(CN(C)c2ccc(-c3csc(CN(C)[C@H](C(=O)O)c4ccccc4)n3)cc2)cc1` [Example 3-87]: the melting point is 146 °C. Also, the IC50 in data set [1] worked out at 0.21 µM.
Turning to `CCC(CC)c1ccc(N(Cc2ccc(-c3csc(COc4cncc(C(=O)O)c4)n3)cc2)C(C)C)cc1` [Example 1-1, 5-{4-[4-({[4-(1-Ethylpropyl)phenyl]isopropylamino}methyl)-phenyl]thiazol-2-ylmethoxy}nicotinic acid], in data set [1], the half-maximal inhibitory concentration (IC50) came out at 0.28 µM. In the data set on male ob/ob mice (dose 1 mg/kg oral), the “blood glucose decreasing rate (%) 3 hours later” value was 45%.
Consider `CCCC(CCC)c1ccc(OCc2ccc(-c3ccc(C(=O)N(CC(=O)O)Cc4ccc(N(C)C)cc4)s3)cc2)cc1` [Example 4-45], for which the melting point lay in the range of 137 to 139 °C. Further, the IC50 in data set [1] is 0.27 µM.
For the compound `CCCC(CCC)c1ccc(N(C)Cc2ccc(-c3csc(CN(C)S(=O)(=O)c4ccc(C(=O)O)cc4)n3)cc2)cc1` [Example 1-15], the IC50 in data set [1] came out at 0.13 µM. Further, the “blood glucose decreasing rate (%) 3 hours later” value in the data set on male ob/ob mice (dose 1 mg/kg oral) was 35%.
`CCCC(CCC)c1ccc(Cn2cc(-c3csc(Cn4cc(C(=O)O)c5ccccc54)n3)c3ccccc32)cc1` [Example 1-182] displayed a melting point of 148 to 152 °C. The IC50 in data set [1] was determined as 0.19 µM.
The corresponding values for `C[C@H]1CC[C@H](c2ccc(COc3ccc(-c4ccc(CN(CC5CCCCC5)C(=O)Nc5ccc(C(=O)O)cc5)s4)cc3)cc2)CC1` [Example 4-80] are 168 to 169.9 °C and under 0.1 µM.
The corresponding values for `CCCC(CCC)c1ccc(OCc2ccc(-c3ccc(CN(CC(=O)O)S(=O)(=O)c4ccc(Cl)s4)s3)cc2)cc1` [Example 4-100] are 151.2 to 154.4 °C and under 0.1 µM.
The corresponding values for `CCCC(CCC)c1ccc(Cn2cc(-c3csc(CNc4cccc(C(=O)O)c4)n3)c3ccccc32)cc1` [Example 1-167] are 83 to 85 °C and 0.41 µM.
Regarding `CCCC(CCC)c1ccc(OCc2ccc(-c3ccc(CN(CC(=O)O)c4nc5ccccc5s4)s3)cc2)cc1` [Example 4-99], the melting point fell in the range of 104.4 to 107.2 °C. For the same compound, in data set [1], the IC50 is under 0.1 µM.
The corresponding values for `CCCC(CCC)c1ccc(OCc2ccc(-c3csc(CN(CC(=O)O)Cc4cc5ccccc5o4)c3)cc2)cc1` [Example 4-92] are 146.7 to 148.9 °C and under 0.1 µM.
`C[C@H]1CC[C@H](c2ccc(COc3ccc(-c4ccc(CN(CC5CCCCC5)S(=O)(=O)c5ccc(C(=O)O)cc5)s4)cc3)cc2)CC1` [Example 4-79]: the melting point lay in the range of 234 to 241.8 °C. Also, the IC50 in data set [1] is under 0.1 µM.
`CCCC(CCC)c1ccc(Cn2cc(-c3csc(CN4CCN(c5cccc(C(=O)O)c5)CC4)n3)c3ccccc32)cc1` [Example 1-172] displayed a melting point of 107 to 110 °C. Further, the IC50 in data set [1] came out at 0.28 µM.
The compound `CCN(Cc1ccc(C2CCCCC2)cc1)c1ccc(-c2ccc(CN(CC(=O)O)Cc3ccccn3)s2)cc1` [Example 4-66] yielded a melting point of 128 to 131 °C. Moreover, the IC50 in data set [1] worked out at 0.45 µM.
On to `CN(Cc1ccc([C@H]2CC[C@H](C)CC2)cc1)c1ccc(-c2csc(CN(CC(=O)O)Cc3ccccn3)n2)cc1` [Example 3-52], for which the IC50 in data set [1] is 0.54 µM. Further, the “blood glucose decreasing rate (%) 3 hours later” value with male ob/ob mice (dose 1 mg/kg oral) is 28%.
Take `CCCC(CCC)c1ccc(Cn2cc(-c3csc(CN4CCc5ccc(C(=O)O)cc5C4)n3)c3ccccc32)cc1` [Example 1-166]: the melting point fell in the range of 124 to 128 °C. Also, the concentration for half-maximal inhibition (IC50) in data set [1] was 0.31 µM.
As for `CCCC(CCC)c1ccc(OCc2ccc(-c3csc(CN(CC(=O)O)Cc4ccc5ccccc5n4)c3)cc2)cc1` [Example 4-87], the melting point lay within 137.3 to 138.7 °C. For the same compound, the IC50 in data set [1] came out at 0.12 µM.
The corresponding values for `CCCC(CCC)c1ccc(OCc2ccc(-c3csc(CN(CC(=O)O)Cc4ccc5[nH]ccc5n4)c3)cc2)cc1` [Example 4-90] are 203.4 to 205.3 °C and 0.16 µM.
In the case of `CCC(CC)c1ccc(N(Cc2ccc(-c3csc(CN(CC(=O)O)CC(=O)Nc4ccc(C(C)C)cc4)n3)cc2)C(C)C)cc1` [Example 1-78], in data set [1], the IC50 worked out at 0.18 µM. In the data set with male ob/ob mice (dose 3 mg/kg oral), the “blood glucose decreasing rate (%) 3 hours later” value is 24%.
`O=C(O)CCN(Cc1ccccc1)Cc1ccc(-c2ccc3c(c2)CCC3Cc2ccc(C3CCCCC3)cc2)s1` (stereo not drawn) [Example 4-84] came in with a melting point of 121 to 128 °C. Further, the half-maximal inhibitory concentration (IC50) in data set [1] worked out at 0.27 µM.
Taken in the same sequence, the figures for `C=CCn1c(CN(CC(=O)O)Cc2ccc(-c3ccc(COc4ccc(C(CCC)CCC)cc4)cc3)s2)nc2ccccc21` [Example 4-106] were 141.2 to 144.1 °C and 0.16 µM.
For the compound `CCCC(CCC)c1ccc(OCc2ccc(-c3ccc(CN(CC(=O)O)Cc4cc(C(F)(F)F)ccc4Cl)s3)cc2)cc1` [Example 4-75], the melting point lay in the range of 92.6 to 94.7 °C. For the same compound, the IC50 in data set [1] is under 0.1 µM.
In the case of `CCCC(CCC)c1ccc(OCc2ccc(-c3ccc(CN(CC(=O)O)c4nc(-c5ccc(Cl)cc5)cs4)s3)cc2)cc1` [Example 4-107], the melting point is 116 to 117.6 °C. Further, the concentration for half-maximal inhibition (IC50) in data set [1] was under 0.1 µM.
For the compound `CCCC(CCC)c1ccc(OCc2ccc(-c3csc(CN(CC(=O)O)S(=O)(=O)N(C)c4ccccc4)c3)cc2)cc1` [Example 4-64], the melting point is 139 to 140.2 °C. In data set [1], the IC50 came out at 0.24 µM.
